This note sets out measurements from patent publication US20250243189A1, “HERBICIDAL IMIDAZOLE-CONTAINING COMPOUNDS” (SYNGENTA CROP PROTECTION AG, priority 2022, published 2025).

Holding throughout (assay type): in vivo
Conditions in all cases: 250 g/ha, evaluated after 13 days, five-point scale

The subject of assay [1] is AMAPA. Description: Post-emergence herbicidal glasshouse test. As to the method:
[Worded in the source for another organism; this organism is reported under the same test.] (§1) Seeds of a variety of test species are sown in standard soil in pots Amaranthus retoflexus (AMARE), Echinochloa crus-galli (ECHCG), Setaria faberi (SETFA)). After cultivation for one day (pre-emergence) or after 8 days cultivation (post-emergence) under controlled conditions in a glasshouse (at 24/16° C., day/night; 14 hours light; 65% humidity), the plants are sprayed with an aqueous spray solution derived from the formulation of the technical active ingredient in acetone/water (50:50) solution containing 0.5% Tween 20 (polyoxyethelyene sorbitan monolaurate, CAS RN 9005-64-5). Compounds are applied at 250 g/ha unless otherwise stated. The test plants are then grown in a glasshouse under controlled conditions in a glasshouse (at 24/16° C., day/night; 14 hours light; 65% humidity) and watered twice daily. After 13 days for pre and post-emergence, the test is evaluated for the percentage damage caused to the plant. The biological activities are shown in the following table on a five-point scale (5=81-100%; 4=61-80%; 3=41-60%; 2=21-40%; 1=0-20%).

For assay [2], the system named is Amaranthus retoflexus (AMARE). Put plainly: Post-emergence herbicidal glasshouse test. Here is the method:
as §1

For assay [3], the system named is Echinochloa crus-galli (ECHCG). Put plainly: Post-emergence herbicidal glasshouse test. Here is the method:
as §1

In assay [4] the test system is IPOHE. Put plainly: Post-emergence herbicidal glasshouse test. Here is the method: as §1
In assay [5] the test system is Setaria faberi (SETFA). Description: Post-emergence herbicidal glasshouse test. As to the method:
as §1

The subject of assay [6] is AMAPA. Put plainly: Pre-emergence herbicidal glasshouse test. As to the method: [Worded in the source for another organism; this organism is reported under the same test.] as §1
Assay [7] concerns Amaranthus retoflexus (AMARE). Put plainly: Pre-emergence herbicidal glasshouse test. Here is the method:
as §1

Assay [8] concerns Echinochloa crus-galli (ECHCG). Put plainly: Pre-emergence herbicidal glasshouse test. Here is the method: as §1
The subject of assay [9] is IPOHE. Description: Pre-emergence herbicidal glasshouse test. Here is the method: as §1
In assay [10] the test system is Setaria faberi (SETFA). Description: Pre-emergence herbicidal glasshouse test. Here is the method: as §1

Regarding `FC(F)(F)c1cn(Cc2ncc(Cl)cn2)c(-c2ccc(Cl)s2)n1` [Compound 1.001, 5-chloro-2-[[2-(5-chloro-2-thienyl)-4-(trifluoromethyl)imidazol-1-yl]methyl]pyrimidine], the “percentage damage caused to the plant, AMAPA” value with AMAPA [1] and in the assay on AMAPA [6] was 5 (5=81-100%) each time. For the same molecule, the “percentage damage caused to the plant, AMARE” value in assay [2] and in assay [7] was 5 (5=81-100%) throughout. For the same molecule, the “percentage damage caused to the plant, ECHCG” value in assay [3] and in [8] was 5 (5=81-100%) each time. For the same molecule, the “percentage damage caused to the plant, IPOHE” value in the assay with IPOHE [4] is 4 (4=61-80%); in the assay with IPOHE [9], 5 (5=81-100%). Moreover, the “percentage damage caused to the plant, SETFA” value in the assay with Setaria faberi (SETFA) [5] and in the assay with Setaria faberi (SETFA) [10] was 5 (5=81-100%) throughout.

Consider `Cn1nccc1-c1nc(C(F)(F)F)cn1Cc1ncc(Cl)cn1` [Compound 1.005], for which the “percentage damage caused to the plant, AMAPA” value in the assay with AMAPA [1] and with AMAPA [6] was 5 (5=81-100%) each time. Besides, the “percentage damage caused to the plant, AMARE” value in assay [2] and in assay [7] was 5 (5=81-100%) in each case. Besides, the “percentage damage caused to the plant, ECHCG” value in assay [3] and in [8] was 5 (5=81-100%) in each case. The “percentage damage caused to the plant, IPOHE” value in the assay on IPOHE [4] is 4 (4=61-80%); with IPOHE [9], 5 (5=81-100%). Also, the “percentage damage caused to the plant, SETFA” value in the assay on Setaria faberi (SETFA) [5] and with Setaria faberi (SETFA) [10] was 5 (5=81-100%) throughout.

For `Cn1ccnc1-c1nc(C(F)(F)F)cn1Cc1ncc(Cl)cn1` [Compound 1.006], the “percentage damage caused to the plant, AMAPA” value in the assay on AMAPA [1] and with AMAPA [6] was 1 (1=0-20%) throughout. The “percentage damage caused to the plant, AMARE” value in assay [2] and in [7] was 1 (1=0-20%) in each case. The “percentage damage caused to the plant, ECHCG” value in [3] and in assay [8] was 1 (1=0-20%) in each case. In addition, the “percentage damage caused to the plant, IPOHE” value in the assay on IPOHE [4] and with IPOHE [9] was 1 (1=0-20%) each time. For the same molecule, the “percentage damage caused to the plant, SETFA” value in the assay on Setaria faberi (SETFA) [5] and in the assay on Setaria faberi (SETFA) [10] was 1 (1=0-20%) throughout.

For the molecule `FC(F)(F)c1cn(Cc2ncc(Cl)cn2)c(-c2cnc(Cl)s2)n1` [Compound 1.008], the “percentage damage caused to the plant, AMAPA” value with AMAPA [1] and with AMAPA [6] was 5 (5=81-100%) throughout. For the same molecule, the “percentage damage caused to the plant, AMARE” value in [2] and in [7] was 5 (5=81-100%) each time. For the same molecule, the “percentage damage caused to the plant, ECHCG” value in [3] and in assay [8] was 5 (5=81-100%) each time. Further, the “percentage damage caused to the plant, IPOHE” value with IPOHE [4] was 4 (4=61-80%); in the assay with IPOHE [9] it was 5 (5=81-100%). For the same molecule, the “percentage damage caused to the plant, SETFA” value in the assay with Setaria faberi (SETFA) [5] and in the assay with Setaria faberi (SETFA) [10] was 5 (5=81-100%) each time.

On to `Cc1c(-c2nc(C(F)(F)F)cn2Cc2ncc(Cl)cn2)cnn1C` [Compound 1.012, 5-chloro-2-[[2-(1,5-dimethylpyrazol-4-yl)-4-(trifluoromethyl)imidazol-1-yl]methyl]pyrimidine], for which the entries for the “percentage damage caused to the plant, AMAPA” value in the assay with AMAPA [1] and in the assay with AMAPA [6] were 3 (3=41-60%) and 5 (5=81-100%), respectively. Further, the figures for the “percentage damage caused to the plant, AMARE” value in assay [2] and in assay [7] were 2 (2=21-40%) and 3 (3=41-60%), respectively. Further, the “percentage damage caused to the plant, ECHCG” value in assay [3] and in assay [8] was 1 (1=0-20%) in each case. Also, the “percentage damage caused to the plant, IPOHE” value in the assay on IPOHE [4] is 3 (3=41-60%); in the assay with IPOHE [9], 5 (5=81-100%). Also, the “percentage damage caused to the plant, SETFA” value with Setaria faberi (SETFA) [5] and with Setaria faberi (SETFA) [10] was 1 (1=0-20%) in each case.

In the case of `Cn1cc(-c2nc(C(F)(F)F)cn2Cc2ncc(Cl)cn2)cn1` [Compound 1.014], the “percentage damage caused to the plant, AMAPA” value in the assay on AMAPA [1] is listed as 3 (3=41-60%); in the assay on AMAPA [6], 5 (5=81-100%). In addition, the figures for the “percentage damage caused to the plant, AMARE” value in assay [2] and in [7] were 3 (3=41-60%) and 4 (4=61-80%), respectively. The “percentage damage caused to the plant, ECHCG” value in assay [3] was 2 (2=21-40%); in assay [8], 4 (4=61-80%). Moreover, the “percentage damage caused to the plant, IPOHE” value in the assay with IPOHE [4] is listed as 3 (3=41-60%); in the assay with IPOHE [9], 5 (5=81-100%). Besides, the results for the “percentage damage caused to the plant, SETFA” value with Setaria faberi (SETFA) [5] and with Setaria faberi (SETFA) [10] were 2 (2=21-40%) and 4 (4=61-80%), respectively.

For `FC(F)c1cn(Cc2ncc(Cl)cn2)c(-c2ccc(Cl)s2)n1` [Compound 1.058, 5-chloro-2-[[2-(5-chloro-2-thienyl)-4-(difluoromethyl)imidazol-1-yl]methyl]pyrimidine], the “percentage damage caused to the plant, AMAPA” value with AMAPA [1] and with AMAPA [6] was 5 (5=81-100%) in each case. Also, the “percentage damage caused to the plant, AMARE” value in [2] and in [7] was 5 (5=81-100%) each time. Besides, the “percentage damage caused to the plant, ECHCG” value in assay [3] was 4 (4=61-80%); in assay [8] it was 5 (5=81-100%). The “percentage damage caused to the plant, IPOHE” value in the assay with IPOHE [4] was 4 (4=61-80%); in the assay with IPOHE [9], 5 (5=81-100%).

Take `FC(F)c1cn(Cc2ncc(Cl)cn2)c(-c2cnc(Cl)s2)n1` [Compound 1.071, 2-chloro-5-[1-[(5-chloropyrimidin-2-yl)methyl]-4-(difluoromethyl)imidazol-2-yl]thiazole]: the “percentage damage caused to the plant, AMAPA” value in the assay on AMAPA [1] was 4 (4=61-80%); in the assay on AMAPA [6], 5 (5=81-100%). For the same molecule, the “percentage damage caused to the plant, AMARE” value in assay [2] and in [7] was 5 (5=81-100%) throughout. Further, the “percentage damage caused to the plant, ECHCG” value in [3] and in assay [8] was 4 (4=61-80%) in each case. Further, the “percentage damage caused to the plant, IPOHE” value with IPOHE [4] was 2 (2=21-40%); in the assay with IPOHE [9] it was 5 (5=81-100%).

For `Cc1cnc(Cn2cc(C(F)(F)F)nc2-c2ccc(Cl)s2)nc1` [Compound 1.072], the “percentage damage caused to the plant, AMAPA” value with AMAPA [1] and in the assay on AMAPA [6] was 5 (5=81-100%) in each case. Also, the “percentage damage caused to the plant, AMARE” value in assay [2] and in assay [7] was 5 (5=81-100%) in each case. The “percentage damage caused to the plant, ECHCG” value in assay [3] and in [8] was 5 (5=81-100%) in each case. For the same molecule, the figures for the “percentage damage caused to the plant, IPOHE” value with IPOHE [4] and with IPOHE [9] were 4 (4=61-80%) and 5 (5=81-100%), respectively.
